Laboratory results: ChEMBL document CHEMBL1201862, “PubChem BioAssay data set” (2004)
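A five-concentration, 48-hour dose response in 96-well plates underlies each endpoint, interpolated linearly between surrounding concentrations. GI50 = concentration required for 50% inhibition of growth.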 Active and inactive are the calls of the source. No stated cut-off is given here; in the data, active = GI50 up to about 1.1 µM and inactive = higher.

What was measured:
Assay in all cases: NCI anticancer screen, dose series, 48 h
RXF 631 = tested on: RXF 631
HOP-18 = tested on: HOP-18
SNB-78 = tested on: SNB-78
KM-20L2 = tested on: KM-20L2
M19-MEL = tested on: M19-MEL
DMS-114 = tested on: DMS-114
DLD-1 = tested on: DLD-1
XF498 = tested on: XF498
DMS-273 = tested on: DMS-273

Measured: GI50

O=C1Nc2ccc(Br)cc2/C1=N/Nc1ccc([N+](=O)[O-])cc1
inactive: RXF 631 17.3 µM | HOP-18 17.7 µM | SNB-78 18.9 µM | KM-20L2 72.1 µM | M19-MEL 17.1 µM | DMS-114 18.5 µM | DLD-1 31.5 µM | XF498 23.7 µM | DMS-273 9.95 µM
